This is an account of results in ChEMBL document CHEMBL1201862, “PubChem BioAssay data set” (2004).

Some test systems named below: HOP-18; M19-MEL; LXFL 529; XF498; DMS-114; DLD-1; RXF 631; KM-20L2; DMS-273.
What all share (assay): growth of human tumour cells (NCI), 48 h

Each structure is given as a SMILES string.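 1) Cells in 96-well plates. 2) Compound, 48 h, 5 concentrations. 3) Linear interpolation between surrounding doses. 4) Unreached endpoint = highest concentration. GI50 marks 50% less growth.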 Calls of active or inactive are those of the source. Cut-off read from the data, not from the text of the source: active = GI50 up to about 1.1 µM and inactive = higher.

Regarding `COc1ccc(CC(=O)NCCc2ccc(OC)c(OC)c2OC)cc1`, the GI50 in the assay with HOP-18, in the assay on M19-MEL, in the assay on LXFL 529, with XF498, in the assay with DMS-114 and in the assay on DLD-1 was > 100 µM (inactive) in each case. Besides, the GI50 in the assay with RXF 631 and in the assay with KM-20L2 was > 100 µM (inactive) each time.
As for `C=C1CC2(OC1=O)c1ccccc1C=Cc1ccccc12`, the GI50 with HOP-18 was 14.3 µM (inactive); with M19-MEL, 5.47 µM (inactive); with LXFL 529, 2.92 µM (inactive); with XF498, 13.6 µM (inactive); with DMS-273 it was 14.8 µM (inactive); in the assay on DMS-114 it was 7.76 µM (inactive). Moreover, the GI50 in the assay with DLD-1 is 1.87 µM (inactive); in the assay with RXF 631, 9.2 µM (inactive); in the assay on KM-20L2 it was 8.13 µM (inactive).
For the compound `COc1ccc(-c2onc(-c3c(C)cc(C)cc3C)c2C2=NCCCN2)cc1`, the GI50 with HOP-18 was 2.1 µM (inactive); with M19-MEL it was > 100 µM (inactive); in the assay on LXFL 529 it was > 100 µM (inactive); with XF498, 60 µM (inactive); with DLD-1 it was 78.3 µM (inactive); with RXF 631, 44.4 µM (inactive). For the same compound, in the assay with KM-20L2, the GI50 was 33.4 µM (inactive).
`COc1ccc(NC(=O)CCc2cc(C(C)(C)C)[nH]n2)cc1`: the GI50 with HOP-18, in the assay with M19-MEL, in the assay with LXFL 529, in the assay with XF498, with DMS-273 and in the assay on RXF 631 was > 100 µM (inactive) each time. In addition, the GI50 in the assay on KM-20L2 was > 100 µM (inactive).
Turning to `CCO/C=C1\N=C(c2ccccc2Br)OC1=O`, the GI50 with M19-MEL, with LXFL 529, with XF498, with DMS-273, in the assay with DMS-114 and in the assay with DLD-1 was > 100 µM (inactive) each time. Also, the GI50 in the assay on KM-20L2 was > 100 µM (inactive).
In the case of `N#C/C(=C\c1ccc2[nH]ccc2c1)C(=O)c1ccc(O)c(O)c1`, the GI50 is 71.4 µM (inactive) in the assay on HOP-18; > 100 µM (inactive) with M19-MEL; > 100 µM (inactive) in the assay on LXFL 529; 57.3 µM (inactive) with DMS-273; 81.7 µM (inactive) in the assay on DMS-114; > 100 µM (inactive) in the assay with DLD-1. Besides, the GI50 in the assay with KM-20L2 is 61.5 µM (inactive).
`COc1ccc(CCNCCCC2c3ccccc3-c3ccccc32)cc1OC`: the GI50 was 16.8 µM (inactive) with HOP-18; 11.1 µM (inactive) with M19-MEL; 14.1 µM (inactive) in the assay with LXFL 529; 14.7 µM (inactive) in the assay with XF498; 7.28 µM (inactive) in the assay on DMS-273; 7.48 µM (inactive) in the assay with DMS-114. For the same compound, the GI50 is 16.1 µM (inactive) in the assay on DLD-1 and 3.45 µM (inactive) with KM-20L2.
Turning to `CNc1cccc(-c2cc(O)c3cc4c(cc3n2)OCO4)c1`, the GI50 in the assay with HOP-18 is 0.881 µM (active); with M19-MEL, 0.445 µM (active); in the assay with LXFL 529 it was 0.119 µM (active); in the assay on XF498 it was 3.82 µM (inactive); in the assay with DMS-273 it was 0.35 µM (active); with DMS-114, 0.723 µM (active). For the same compound, the GI50 in the assay on DLD-1 is 0.181 µM (active).
For the compound `OC12c3ccccc3C1CCCCCC21OCCCO1` (centres undefined), the GI50 in the assay with HOP-18, in the assay on M19-MEL, in the assay with LXFL 529, in the assay on DMS-273, in the assay on DMS-114 and with DLD-1 was > 100 µM (inactive) throughout. The GI50 in the assay with KM-20L2 is > 100 µM (inactive).
As to `O=C1[C@@H]2C(c3ccccc3[N+](=O)[O-])=NO[C@@H]2C(=O)N1c1ccc(Cc2ccc(N3C(=O)[C@H]4C(c5ccccc5[N+](=O)[O-])=NO[C@H]4C3=O)cc2)cc1`, the GI50 in the assay on HOP-18, in the assay on LXFL 529, with DMS-114, in the assay on DLD-1 and in the assay with KM-20L2 was > 100 µM (inactive) each time.
Regarding `O=C(O)C(C(=O)O)P(=S)(S)c1ccccc1` (centres undefined), the GI50 in the assay with M19-MEL, in the assay with LXFL 529, with XF498, in the assay with DMS-273, in the assay on DMS-114 and in the assay on DLD-1 was > 100 µM (inactive) in each case. The GI50 in the assay with RXF 631 and in the assay on KM-20L2 was > 100 µM (inactive) throughout.
Turning to `CCOC(=O)CC1(C(=O)OCC)c2[nH]c3ccccc3c2CCN1Cc1ccccc1` (centres undefined), the GI50 is 23 µM (inactive) in the assay on HOP-18; 14.3 µM (inactive) in the assay with M19-MEL; 25.4 µM (inactive) in the assay on LXFL 529; 24.2 µM (inactive) in the assay on XF498; 17.3 µM (inactive) in the assay on DMS-273; 18.3 µM (inactive) in the assay on DMS-114. For the same compound, the values for the GI50 in the assay on DLD-1 and in the assay with KM-20L2 were 24.4 µM (inactive) and 17.1 µM (inactive), respectively.
On to `COc1cc(/C=N\O[Si](C)(C)C(C)(C)C)ccc1O[Si](C)(C)C(C)(C)C`, for which the GI50 in the assay with HOP-18 is > 100 µM (inactive); with M19-MEL, 74.5 µM (inactive); with LXFL 529, 70.1 µM (inactive); in the assay with XF498 it was 38.6 µM (inactive); in the assay with DMS-273, > 100 µM (inactive); with DMS-114 it was 28.1 µM (inactive). Further, the results for the GI50 in the assay on DLD-1, in the assay on RXF 631 and with KM-20L2 were 89.9 µM (inactive), 30.1 µM (inactive) and > 100 µM (inactive), respectively.
As for `CCC(C)(O)c1cn(-c2cccc(S(=O)(=O)O)c2)nn1` (centres undefined), the GI50 in the assay on HOP-18, in the assay on LXFL 529, in the assay with XF498, in the assay on DMS-273, in the assay with DMS-114 and in the assay on DLD-1 was > 100 µM (inactive) throughout. The GI50 in the assay on KM-20L2 is > 100 µM (inactive).
For the compound `O=S1(=O)OCCOS(=O)(=O)C1(Cl)Cl`, the GI50 is > 100 µM (inactive) in the assay with M19-MEL; > 100 µM (inactive) in the assay on LXFL 529; > 100 µM (inactive) in the assay with XF498; 53.1 µM (inactive) in the assay on DMS-273; > 100 µM (inactive) in the assay with DMS-114; > 100 µM (inactive) in the assay with DLD-1. Also, the GI50 in the assay with RXF 631 is > 100 µM (inactive).
Regarding `NC(=O)c1coc(C2OC(CO)C(O)C2O)n1` (centres undefined), the GI50 in the assay with HOP-18, in the assay on M19-MEL, in the assay with LXFL 529, in the assay on DMS-273, with DMS-114 and in the assay on KM-20L2 was > 100 µM (inactive) in each case.
As to `CCOc1ccc(/N=C(/NC(=O)c2ccccc2)SC)cc1`, the GI50 with HOP-18, with M19-MEL, with LXFL 529, with DMS-273, in the assay with DMS-114 and in the assay with DLD-1 was > 100 µM (inactive) each time. Also, the GI50 in the assay with KM-20L2 is > 100 µM (inactive).
On to `NC(=S)N/C=C1\C(=O)Oc2ccccc2C1=O`, for which the GI50 in the assay on HOP-18 is 39.2 µM (inactive); with M19-MEL, > 100 µM (inactive); in the assay with LXFL 529, 85.7 µM (inactive); with XF498 it was 32.3 µM (inactive); in the assay with DMS-273 it was > 100 µM (inactive); in the assay on DMS-114, 48.4 µM (inactive). The GI50 in the assay on DLD-1 was 31.2 µM (inactive); with KM-20L2, > 100 µM (inactive).
Take `CN(C)[C@@H]1C(O)=C(C(=O)NCNCCCC(=O)O)C(=O)[C@@]2(O)C(O)=C3C(=O)c4c(O)cccc4[C@@](C)(O)[C@H]3C[C@@H]12`: the GI50 with HOP-18, with M19-MEL, in the assay on LXFL 529, in the assay with XF498, with DMS-273 and in the assay on DMS-114 was > 100 µM (inactive) in each case. The GI50 with DLD-1 and with KM-20L2 was > 100 µM (inactive) in each case.
Take `O=C1OC(c2cccc(C(F)(F)F)c2)c2ccc3ccccc3c21` (centres undefined): the GI50 in the assay with HOP-18 was > 10 µM (inactive); in the assay with M19-MEL, > 10 µM (inactive); in the assay on LXFL 529 it was 8.3 µM (inactive); with XF498, > 100 µM (inactive); with DMS-273, > 10 µM (inactive); with DMS-114, 5.57 µM (inactive). Besides, the GI50 with DLD-1 is 4.79 µM (inactive); with RXF 631, 3.42 µM (inactive); with KM-20L2, > 10 µM (inactive).
On to `O=C(Nc1cc(Cl)c(Cl)cc1Cl)C(=O)C1C=CCS1(=O)=O` (centres undefined), for which the GI50 in the assay on HOP-18, in the assay on M19-MEL, with LXFL 529, in the assay with DMS-273, in the assay on DMS-114 and in the assay on DLD-1 was > 100 µM (inactive) throughout. Also, in the assay with KM-20L2, the GI50 was > 100 µM (inactive).
With `CCCCCCC(/C=N/O)C(C)(O)CCC` (centres undefined), the GI50 in the assay with M19-MEL was > 100 µM (inactive); in the assay on LXFL 529 it was > 100 µM (inactive); in the assay on XF498, 13.2 µM (inactive); in the assay with DMS-273 it was > 100 µM (inactive); with DMS-114 it was 73.6 µM (inactive); in the assay on DLD-1 it was > 100 µM (inactive). Besides, the GI50 in the assay with KM-20L2 is > 100 µM (inactive).
Turning to `COc1ccc(-c2nc(N)nc(-c3cc(C)ccc3O)c2Cl)cc1`, the GI50 with HOP-18 is > 100 µM (inactive); in the assay with M19-MEL, 93.3 µM (inactive); with LXFL 529, 33 µM (inactive); in the assay with XF498, 35.6 µM (inactive); in the assay on DMS-273, 43.7 µM (inactive); in the assay with DMS-114, 48.2 µM (inactive). Also, the GI50 in the assay with DLD-1 was 39.9 µM (inactive); with RXF 631, > 100 µM (inactive); in the assay on KM-20L2, > 100 µM (inactive).
As to `COc1ccc(OC)c2c3c(ccc12)C(c1ccccc1)OC3=O` (centres undefined), the GI50 was 52.1 µM (inactive) in the assay with HOP-18; 45.7 µM (inactive) with M19-MEL; 43.8 µM (inactive) in the assay with LXFL 529; 31.9 µM (inactive) in the assay with DMS-273; 51.8 µM (inactive) in the assay with DMS-114; 63.5 µM (inactive) with DLD-1. Besides, in the assay on KM-20L2, the GI50 is > 100 µM (inactive).
